Our source for the GI50 and TGI values is PubChem BioAssay (NCI).

Values joined by “and” are separate entries in the source; they are usually repeats but may differ in a detail not shown here. Equal values may be shown once.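 These data come from cells grown in 96-well plates and exposed to compound for 48 hours at five concentrations. At the GI50, growth is halved. TGI is the concentration that stops growth completely.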 Where only a bound is given, the exact number is not on record here.

One experiment concerns CAKI-1 renal. The experiment is described as follows: growth of human tumour cells (NCI), 48 h.
For the molecule `C=C(C)C(=O)Nc1ccc(NC(C)C)cc1`, the GI50 was more than 100 µM and the TGI is more than 100 µM.
In the case of `COc1cc(CSc2nc3ccc(C)cc3c(=O)n2-c2ccccc2)cc(OC)c1OC`, the GI50 is 2.79 µM and the TGI was more than 100 µM.
`O=C(O)CNC(=O)c1ccc(-c2ccccc2)cc1` showed a TGI of more than 100 µM.
Regarding `CC1CCC(NC(=O)N(CCCl)N=O)CC1` (configuration not stated), the GI50 is 18.9 µM; the TGI was 37.5 µM and 53.2 µM.
Molecule `COc1ccc(C2=CC(c3ccc4c(c3)OCO4)c3c(c4ccccc4oc3=O)O2)cc1OC` (configuration not stated) registered a TGI of more than 100 µM.
Consider `CC(C)[C@H](N)C(=O)N1CCC[C@H]1B(O)O`, for which the GI50 is more than 100 µM and the TGI is more than 100 µM.
As for `CC(=O)OCC1OC(n2cnc(C(N)=S)c2N)C(OC(C)=O)C1OC(C)=O` (configuration not stated), the TGI was more than 100 µM.
Regarding `CC(C)(C)n1cc(-c2ccnc(NCCCNS(=O)(=O)c3ccc(C(F)(F)F)cc3)c2)c(-c2cccc(O)c2)n1`, the GI50 is 1.99 µM and the TGI was determined as 4.21 µM.
As to `O=C1Nc2ccccc2/C1=C/C(=O)c1coc2c1C(=O)c1ccccc1C2=O`, the GI50 was 34.2 µM and the TGI was more than 100 µM.
As to `Nc1c(C(=O)c2cccc(-c3ccncc3)c2)cnn1-c1ccc(F)cc1F`, the GI50 is 8.1 µM and the TGI is more than 25 µM.
Turning to `C=C1C(=O)O[C@H]2[C@H]1CC/C(COC(=O)NCc1ccc(Cn3c(=O)sn(CCCl)c3=O)cc1)=C\CC[C@@]1(C)O[C@@H]21`, the GI50 is 1.76 µM and the TGI was found to be 3.71 µM.
Taken in the same sequence, the figures for `COc1ccc2c(c1)c(=O)oc1cc(OC/C(C)=N\O)ccc12` were more than 100 µM and more than 100 µM.

In another experiment the test system is SK-OV-3 ovarian. Description: growth of human tumour cells (NCI), 48 h.
Turning to `C#Cc1c(F)ccc2cc(O)cc(-c3ncc4c(N5CC6CCC(C5)N6)nc(OC[C@@]56CCCN5C[C@H](F)C6)nc4c3F)c12`, the GI50 was 17.7 µM and the TGI was determined as 35.6 µM.
As for `C=C(C)C(=O)Nc1ccc(NC(C)C)cc1`, the GI50 is more than 100 µM and the TGI was more than 100 µM.
`COc1cc(CSc2nc3ccc(C)cc3c(=O)n2-c2ccccc2)cc(OC)c1OC`: the GI50 is 1.97 µM and the TGI is more than 100 µM.
Regarding `O=C(O)CNC(=O)c1ccc(-c2ccccc2)cc1`, the TGI was more than 100 µM.
On the same count and under the same terms, next, `CC1CCC(NC(=O)N(CCCl)N=O)CC1` (configuration not stated): 148 µM; `COc1ccc(C2=CC(c3ccc4c(c3)OCO4)c3c(c4ccccc4oc3=O)O2)cc1OC` (configuration not stated): more than 100 µM.
Consider `CC(C)[C@H](N)C(=O)N1CCC[C@H]1B(O)O`, for which the GI50 is more than 100 µM and the TGI is more than 100 µM.
Consider `CC(=O)OCC1OC(n2cnc(C(N)=S)c2N)C(OC(C)=O)C1OC(C)=O` (configuration not stated), for which the TGI is more than 100 µM.
For `CC(C)(C)n1cc(-c2ccnc(NCCCNS(=O)(=O)c3ccc(C(F)(F)F)cc3)c2)c(-c2cccc(O)c2)n1`, the GI50 was 2.69 µM and the TGI was found to be 6.75 µM.
`O=C1Nc2ccccc2/C1=C/C(=O)c1coc2c1C(=O)c1ccccc1C2=O`: the GI50 is more than 100 µM and the TGI was more than 100 µM.
In the case of `Nc1c(C(=O)c2cccc(-c3ccncc3)c2)cnn1-c1ccc(F)cc1F`, the GI50 is 19.8 µM and the TGI was more than 25 µM.
Turning to `C=C1C(=O)O[C@H]2[C@H]1CC/C(COC(=O)NCc1ccc(Cn3c(=O)sn(CCCl)c3=O)cc1)=C\CC[C@@]1(C)O[C@@H]21`, the GI50 is 16.1 µM and the TGI amounted to 29.7 µM.
For `COc1ccc2c(c1)c(=O)oc1cc(OC/C(C)=N\O)ccc12`, the GI50 was 99.7 µM and the TGI is more than 100 µM.

For a further experiment, the system named is OVCAR-8 ovarian. Description: growth of human tumour cells (NCI), 48 h.
On to `C#Cc1c(F)ccc2cc(O)cc(-c3ncc4c(N5CC6CCC(C5)N6)nc(OC[C@@]56CCCN5C[C@H](F)C6)nc4c3F)c12`, for which the GI50 was 17.3 µM and the TGI came to 36.4 µM.
Consider `C=C(C)C(=O)Nc1ccc(NC(C)C)cc1`, for which the GI50 was more than 100 µM and the TGI is more than 100 µM.
As to `COc1cc(CSc2nc3ccc(C)cc3c(=O)n2-c2ccccc2)cc(OC)c1OC`, the GI50 was 4.51 µM and the TGI is more than 100 µM.
Consider `O=C(O)CNC(=O)c1ccc(-c2ccccc2)cc1`, for which the TGI was more than 100 µM.
For `CC1CCC(NC(=O)N(CCCl)N=O)CC1` (configuration not stated), the GI50 was 20 µM; the TGI was 47.3 µM and 120 µM.
The molecule `COc1ccc(C2=CC(c3ccc4c(c3)OCO4)c3c(c4ccccc4oc3=O)O2)cc1OC` (configuration not stated) had a TGI of more than 100 µM.
As for `CC(C)[C@H](N)C(=O)N1CCC[C@H]1B(O)O`, the GI50 was more than 100 µM and the TGI is more than 100 µM.
As for `CC(=O)OCC1OC(n2cnc(C(N)=S)c2N)C(OC(C)=O)C1OC(C)=O` (configuration not stated), the TGI was more than 100 µM.
Consider `CC(C)(C)n1cc(-c2ccnc(NCCCNS(=O)(=O)c3ccc(C(F)(F)F)cc3)c2)c(-c2cccc(O)c2)n1`, for which the GI50 is 2.46 µM and the TGI came out at 6.44 µM.
In the case of `O=C1Nc2ccccc2/C1=C/C(=O)c1coc2c1C(=O)c1ccccc1C2=O`, the GI50 is more than 100 µM and the TGI is more than 100 µM.
Take `Nc1c(C(=O)c2cccc(-c3ccncc3)c2)cnn1-c1ccc(F)cc1F`: the GI50 was 18.3 µM and the TGI was more than 25 µM.
`C=C1C(=O)O[C@H]2[C@H]1CC/C(COC(=O)NCc1ccc(Cn3c(=O)sn(CCCl)c3=O)cc1)=C\CC[C@@]1(C)O[C@@H]21`: the GI50 was 2.04 µM and the TGI is 4.81 µM.
With `COc1ccc2c(c1)c(=O)oc1cc(OC/C(C)=N\O)ccc12`, the GI50 is more than 100 µM and the TGI was more than 100 µM.

The next experiment relates to UO-31 renal. The experiment is described as follows: growth of human tumour cells (NCI), 48 h.
`C#Cc1c(F)ccc2cc(O)cc(-c3ncc4c(N5CC6CCC(C5)N6)nc(OC[C@@]56CCCN5C[C@H](F)C6)nc4c3F)c12`: the GI50 was more than 34.8 µM and the TGI was more than 50.2 µM.
Take `C=C(C)C(=O)Nc1ccc(NC(C)C)cc1`: the GI50 was more than 100 µM and the TGI is more than 100 µM.
`COc1cc(CSc2nc3ccc(C)cc3c(=O)n2-c2ccccc2)cc(OC)c1OC`: the GI50 was 3.67 µM and the TGI is more than 100 µM.
In turn, `O=C(O)CNC(=O)c1ccc(-c2ccccc2)cc1` returned a TGI of more than 100 µM.
As to `CC1CCC(NC(=O)N(CCCl)N=O)CC1` (configuration not stated), the GI50 is 61.2 µM and the TGI turned out to be 92 µM.
`COc1ccc(C2=CC(c3ccc4c(c3)OCO4)c3c(c4ccccc4oc3=O)O2)cc1OC` (configuration not stated) had a TGI of more than 100 µM.
Take `CC(C)[C@H](N)C(=O)N1CCC[C@H]1B(O)O`: the GI50 is more than 100 µM and the TGI is more than 100 µM.
Turning to `CC(=O)OCC1OC(n2cnc(C(N)=S)c2N)C(OC(C)=O)C1OC(C)=O` (configuration not stated), the TGI is more than 100 µM.
For the molecule `CC(C)(C)n1cc(-c2ccnc(NCCCNS(=O)(=O)c3ccc(C(F)(F)F)cc3)c2)c(-c2cccc(O)c2)n1`, the GI50 is 1.58 µM and the TGI was found to be 3.06 µM.
`O=C1Nc2ccccc2/C1=C/C(=O)c1coc2c1C(=O)c1ccccc1C2=O`: the GI50 is 70.4 µM and the TGI was more than 100 µM.
Turning to `Nc1c(C(=O)c2cccc(-c3ccncc3)c2)cnn1-c1ccc(F)cc1F`, the GI50 was 8.96 µM and the TGI is more than 25 µM.
The matching figures for `C=C1C(=O)O[C@H]2[C@H]1CC/C(COC(=O)NCc1ccc(Cn3c(=O)sn(CCCl)c3=O)cc1)=C\CC[C@@]1(C)O[C@@H]21`: 1.65 µM and 3.25 µM.
With `COc1ccc2c(c1)c(=O)oc1cc(OC/C(C)=N\O)ccc12`, the GI50 was 33.3 µM and the TGI is more than 100 µM.

For the next experiment, the system named is IGROV1 ovarian. The experiment is described as follows: growth of human tumour cells (NCI), 48 h.
As to `C#Cc1c(F)ccc2cc(O)cc(-c3ncc4c(N5CC6CCC(C5)N6)nc(OC[C@@]56CCCN5C[C@H](F)C6)nc4c3F)c12`, the GI50 was 13.9 µM and the TGI was 29.9 µM.
For `C=C(C)C(=O)Nc1ccc(NC(C)C)cc1`, the GI50 is more than 100 µM and the TGI was more than 100 µM.
With `COc1cc(CSc2nc3ccc(C)cc3c(=O)n2-c2ccccc2)cc(OC)c1OC`, the GI50 was 3.36 µM and the TGI is more than 100 µM.
`O=C(O)CNC(=O)c1ccc(-c2ccccc2)cc1` showed a TGI of more than 100 µM.
On to `CC1CCC(NC(=O)N(CCCl)N=O)CC1` (configuration not stated), for which the GI50 is 22.6 µM; the TGI is 80.7 µM and 89 µM.
Molecule `COc1ccc(C2=CC(c3ccc4c(c3)OCO4)c3c(c4ccccc4oc3=O)O2)cc1OC` (configuration not stated) showed a TGI of more than 100 µM.
`CC(C)[C@H](N)C(=O)N1CCC[C@H]1B(O)O`: the GI50 was more than 100 µM and the TGI was more than 100 µM.
Take `CC(=O)OCC1OC(n2cnc(C(N)=S)c2N)C(OC(C)=O)C1OC(C)=O` (configuration not stated): the TGI is more than 100 µM.
With `CC(C)(C)n1cc(-c2ccnc(NCCCNS(=O)(=O)c3ccc(C(F)(F)F)cc3)c2)c(-c2cccc(O)c2)n1`, the GI50 is 1.8 µM and the TGI is 3.55 µM.
As to `O=C1Nc2ccccc2/C1=C/C(=O)c1coc2c1C(=O)c1ccccc1C2=O`, the GI50 is more than 100 µM and the TGI is more than 100 µM.
`Nc1c(C(=O)c2cccc(-c3ccncc3)c2)cnn1-c1ccc(F)cc1F`: the GI50 was 9.98 µM and the TGI was more than 25 µM.
The matching figures for `C=C1C(=O)O[C@H]2[C@H]1CC/C(COC(=O)NCc1ccc(Cn3c(=O)sn(CCCl)c3=O)cc1)=C\CC[C@@]1(C)O[C@@H]21`: 2.5 µM and 6.79 µM.
Regarding `COc1ccc2c(c1)c(=O)oc1cc(OC/C(C)=N\O)ccc12`, the GI50 is more than 100 µM and the TGI is more than 100 µM.
